Results on 2 compounds are retold here after patent US20230372253A1, “NOVEL LIPID-BASED SMALL MOLECULE INTEGRIN RECEPTOR-LIGAND AGONIST ADJUVANTS CARRIER COMPOSITIONS, INTEGRIN AGONIST ADJUVANT PHARMACEUTICAL COMPOSITIONS THEREFROM, AND METHODS FOR MAKING AND USING SAME” (7 Hills Pharma LLC, priority 2022, published 2023).

Where two headings read alike, the source gives them in different places.

One series is described as follows: Solubility of 7HP349. It is filed as physicochemical.
A short description of a further series: LogP. It is filed as physicochemical. An excerpt:
The term “Log P” means the ratio of the concentrations of a substance in two heterogenous phases in equilibrium with each other. Typically, the organic solvent in n-octanol, but n-hexane; toluene; chlorobenzene; dichloromethane; methyl tert-butyl ether; isopropyl acetate; benzyl alcohol; cyclohexanol; or n-butanol may be used as well.

Another series has as its target CYP3A4 (Homo sapiens, UniProt P08684). Put plainly: Cytochrome P450 Metabolism. It is filed as in vitro ADME.
For another series, the target named is CYP2C19 (Homo sapiens, UniProt P33261). Put plainly: Cytochrome P450 Metabolism. It is filed as in vitro ADME.
CYP2C19, sequence (P33261 whole entry): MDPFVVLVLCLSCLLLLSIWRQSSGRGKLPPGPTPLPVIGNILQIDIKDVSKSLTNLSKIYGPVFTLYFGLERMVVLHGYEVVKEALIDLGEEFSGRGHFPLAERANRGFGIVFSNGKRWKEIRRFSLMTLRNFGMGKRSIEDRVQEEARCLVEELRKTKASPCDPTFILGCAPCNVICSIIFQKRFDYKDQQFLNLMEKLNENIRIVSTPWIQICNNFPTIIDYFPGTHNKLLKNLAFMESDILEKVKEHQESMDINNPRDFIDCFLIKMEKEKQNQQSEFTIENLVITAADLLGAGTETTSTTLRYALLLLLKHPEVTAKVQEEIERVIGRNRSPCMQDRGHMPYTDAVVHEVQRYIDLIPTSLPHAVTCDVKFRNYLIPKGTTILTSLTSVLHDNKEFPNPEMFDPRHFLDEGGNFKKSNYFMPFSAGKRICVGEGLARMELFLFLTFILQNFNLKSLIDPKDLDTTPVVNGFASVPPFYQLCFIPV
Another series is described as follows: Human SAD PK. The settings on record: plasma, oral; for AUC(0-t): human; for AUC(0-t) / Cmax / half-life: mean ± SD; for Cmax / half-life / Tmax: n = 6; for Tmax: median. In kind it is in vivo. How it is done: Preferred lipid-based formulation based on U28 provided adequate exposure in human. The optimal PK exposure to engage integrins and improve adjuvant activity is systemic plasma exposure of AUC0-t between about 50 ng/mL/hr and about 100 ng/mL/hr.

CYP3A4, sequence (P08684 whole entry): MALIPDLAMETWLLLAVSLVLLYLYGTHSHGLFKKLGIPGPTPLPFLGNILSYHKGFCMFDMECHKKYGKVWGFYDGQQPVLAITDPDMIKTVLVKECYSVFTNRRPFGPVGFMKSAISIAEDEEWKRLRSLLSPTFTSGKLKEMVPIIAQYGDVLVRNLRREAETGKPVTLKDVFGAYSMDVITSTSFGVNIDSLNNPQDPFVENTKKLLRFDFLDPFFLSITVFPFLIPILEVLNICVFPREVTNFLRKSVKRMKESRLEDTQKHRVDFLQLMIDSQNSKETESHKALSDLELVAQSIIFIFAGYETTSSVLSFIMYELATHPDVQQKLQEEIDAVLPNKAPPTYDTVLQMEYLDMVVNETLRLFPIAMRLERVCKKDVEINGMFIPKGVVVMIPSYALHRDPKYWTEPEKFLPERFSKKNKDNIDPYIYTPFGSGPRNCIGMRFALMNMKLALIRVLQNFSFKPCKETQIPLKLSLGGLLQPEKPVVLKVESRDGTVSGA

Take `O=C(OCCOCCOCCOC(=O)N(Cc1cccs1)Cc1cccs1)N(Cc1cccs1)Cc1cccs1` [Form 7HP349, 3-oxo-1-(2-thienyl)-2-(2-thienylmethyl)-4,7,10-trioxa-2-azadodecan-12-yl bis(2-thienylmethyl)carbamate]: the Solubility was under 0.01 µM in “Solubility of 7HP349” (aqueous buffers and simulated gastrointestinal fluids, aqueous buffer, hydrochloric acid-potassium chloride buffer (pH 2), citrate buffer (pH 4), sodium phosphate buffer (pH 7.4), SGF, FaSSIF and FeSSIF, read-out: Solubility); “Highly soluble in common organic solvents such” in “Solubility of 7HP349” (common organic solvents such as methanol, ethanol, ethyl acetate, acetone, DMSO, DMF, DCM, etc.); “Insoluble in water” in the series “Solubility of 7HP349” (in water); “Practically insoluble in non-polar organic solvents” in the series “Solubility of 7HP349” (non-polar organic solvents such as hexane, heptane, etc.); at most 50 mg/mL in “Solubility of 7HP349” (oil or lipid, vegetable oils such as corn, soybean, canola oils typically containing >C16 fatty acids, read-out: Solubility). In “LogP”, this compound gave a logP of 6.22. In addition, the “Cytochrome P450 Metabolism” value was “Substrate for CYP3A4 and CYP2C19” on CYP3A4; “Substrate for CYP3A4 and CYP2C19” on CYP2C19. In addition, the AUC(0-t) in the series “Human SAD PK” (50 mg, cohort 1, 50 mg, n = 6, read-out: AUC0-10 h) was found to be 12.5 ng·h/mL; in the series “Human SAD PK” (50 mg, cohort 1, 50 mg, n = 6, read-out: AUClast), 31.8 ± 21.5 ng·h/mL; in “Human SAD PK” (100 mg, cohort 2, 100 mg, n = 6, read-out: AUC0-10 h) it was 115 ± 57.5 ng·h/mL; in the series “Human SAD PK” (100 mg, cohort 2, 100 mg, n = 6, read-out: AUClast) it was 165 ng·h/mL; in “Human SAD PK” (200 mg, cohort 3, 200 mg, n = 6, read-out: AUC0-10 h), 571 ± 195 ng·h/mL; in “Human SAD PK” (200 mg, cohort 3, 200 mg, n = 6, read-out: AUClast), 755 ± 241 ng·h/mL. The AUC(0-t) in “Human SAD PK” (300 mg, cohort 4, 300 mg, n = 6, read-out: AUC0-10 h) was 938 ± 282 ng·h/mL; in the series “Human SAD PK” (300 mg, cohort 4, 300 mg, n = 6, read-out: AUClast), 1350 ± 316 ng·h/mL. The Cmax turned out to be 10.2 ± 8.17 ng/mL in “Human SAD PK” (cohort 1, 50 mg); 36.1 ± 16.4 ng/mL in the series “Human SAD PK” (cohort 2, 100 mg); 166 ± 61.8 ng/mL in the series “Human SAD PK” (cohort 3, 200 mg); 321 ng/mL in the series “Human SAD PK” (cohort 4, 300 mg). Moreover, the half-life in “Human SAD PK” (cohort 1, 50 mg) is 8.9 h; in “Human SAD PK” (cohort 2, 100 mg), 20.6 ± 15 h; in “Human SAD PK” (cohort 3, 200 mg), 34.6 ± 20.7 h; in “Human SAD PK” (cohort 4, 300 mg), 29.7 ± 15.4 h. In addition, the Tmax in “Human SAD PK” (cohort 1, 50 mg) was found to be 2.5 h; in the series “Human SAD PK” (cohort 2, 100 mg) it was 2 h; in “Human SAD PK” (cohort 3, 200 mg), 2 h; in “Human SAD PK” (cohort 4, 300 mg) it was 2 h.
`O=C(OCCOCCOC(=O)N(Cc1cccs1)Cc1cccs1)N(Cc1cccs1)Cc1cccs1` [Form 7HP577, 3-oxo-1-(2-thienyl)-2-(2-thienylmethyl)-4,7-dioxa-2-azanonan-9-yl bis(2-thienylmethyl)carbamate] yielded a logP in the series “LogP” of 6.58.
